Here are results for 30 molecules from patent US12208088B2 (Genentech, Inc., priority 2018, dated 2025).

The assay deals with HPK1 (Homo sapiens (Human), UniProt Q92918). Put plainly: HPK1 Lantha binding assay ("Lanth"). The following applies: binding assays; Morrison Ki fit. Summed up: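 Ki values are from Morrison-equation fitting of 665/615 nm TR-FRET signals, taking enzyme level, tracer level and tracer Kd into account. The assay mix held HPK1 (2 nM), Eu-anti-GST antibody (2 nM) and Tracer222 (15 nM). Incubations were two 1 h steps at 23 °C, on 5-fold serial compound dilutions.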
Sequence of HPK1 (Q92918 1-346 limits assumed): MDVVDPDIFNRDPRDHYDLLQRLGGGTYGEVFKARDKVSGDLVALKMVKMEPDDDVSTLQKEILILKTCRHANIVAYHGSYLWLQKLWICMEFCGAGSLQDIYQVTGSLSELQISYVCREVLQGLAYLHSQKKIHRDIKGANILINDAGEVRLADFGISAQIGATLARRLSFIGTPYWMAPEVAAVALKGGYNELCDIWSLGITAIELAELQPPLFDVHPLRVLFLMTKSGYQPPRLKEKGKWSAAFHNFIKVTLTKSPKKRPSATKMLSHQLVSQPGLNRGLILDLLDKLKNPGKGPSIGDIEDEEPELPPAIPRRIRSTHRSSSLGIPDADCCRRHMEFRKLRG

Turning to `N#CCCNC(=O)c1ccc(-c2cnc3c(c2Cl)C2(CC=CC2)CN3)cc1` [Compound 221, 4-(4′-Chloro-1′,2′-dihydrospiro[cyclopentane-1,3′-pyrrolo[2,3-b]pyridin]-3-en-5′-yl)-N-(2-cyanoethyl)benzamide], affinity was put at a Ki of 303 nM.
As to `CC(=O)Nc1cccc(-c2cnc3c(c2Cl)C2(CC=CC2)CN3)c1` [Compound 222, N-(3-(4′-Chloro-1′,2′-dihydrospiro[cyclopentane-1,3′-pyrrolo[2,3-b]pyridin]-3-en-5′-yl)phenyl)acetamide], the Ki (usually the dissociation constant of the complex between target and ligand, obtained from inhibition or displacement) was 275 nM.
As for `COCCc1ccc(-c2cnc3c(c2Cl)C2(CC=CC2)CN3)cc1` [Compound 223, 4′-Chloro-5′-(4-(2-methoxyethyl)phenyl)-1′,2′-dihydrospiro[cyclopentane-1,3′-pyrrolo[2,3-b]pyridin]-3-ene], the inhibition constant (Ki) stood at 436 nM.
Then `Nc1ccc(-c2cnc3c(c2Cl)C2(CC=CC2)CN3)cc1` [Compound 224, 4-(4′-Chloro-1′,2′-dihydrospiro[cyclopentane-1,3′-pyrrolo[2,3-b]pyridin]-3-en-5′-yl)aniline], with 126 nM; and `Nc1ccc(-c2cnc3c(c2Cl)C2(CC=CC2)CN3)c(F)c1` [Compound 225, 4-(4′-Chloro-1′,2′-dihydrospiro[cyclopentane-1,3′-pyrrolo[2,3-b]pyridin]-3-en-5′-yl)-3-fluoroaniline], with 363 nM.
Then `CN(C)C(=O)c1cccc(-c2cnc3c(c2Cl)C2(CC=CC2)CN3)c1` [Compound 226, 3-(4′-Chloro-1′,2′-dihydrospiro[cyclopentane-1,3′-pyrrolo[2,3-b]pyridin]-3-en-5′-yl)-N,N-dimethylbenzamide], with 14 nM.
Turning to `CN(C)C(=O)c1cccc(-c2cnc3c(c2Cl)C2(CC=CC2)CN3)c1F` [Compound 227, 3-(4′-Chloro-1′,2′-dihydrospiro[cyclopentane-1,3′-pyrrolo[2,3-b]pyridin]-3-en-5′-yl)-2-fluoro-N,N-dimethylbenzamide], the affinity, expressed as Ki, was 11.2 nM.
The result for `O=C(c1ccc(-c2cnc3c(c2Cl)C2(CC=CC2)CN3)cc1Cl)N1CCC(O)CC1` [Compound 230, (2-Chloro-4-(4′-chloro-1′,2′-dihydrospiro[cyclopentane-1,3′-pyrrolo[2,3-b]pyridin]-3-en-5′-yl)phenyl)(4-hydroxypiperidin-1-yl)methanone] reads 173 nM.
In turn, `O=C(c1ccc(-c2cnc3c(c2Cl)C2(CC=CC2)CN3)cc1)N1CCOCC1` [Compound 231, (4-(4′-Chloro-1′,2′-dihydrospiro[cyclopentane-1,3′-pyrrolo[2,3-b]pyridin]-3-en-5′-yl)phenyl)(morpholino)methanone] yielded a Ki of 447 nM.
In turn, `O=C(c1cccc(-c2cnc3c(c2)C2(CC2)CN3)c1F)N1CCCCC1` [Compound 232, (3-(1′,2′-dihydrospiro[cyclopropane-1,3′-pyrrolo[2,3-b]pyridin]-5′-y1)-2-fluorophenyl)(piperidin-1-yl)methanone] showed a Ki of 33.7 nM.
Then `Cc1c(-c2ccc(N)c(C(=O)N(C)C)c2F)cnc2c1C1(CCCCC1)CN2` [Compound 233, 6-Amino-2-fluoro-N,N-dimethyl-3-(4′-methyl-1′,2′-dihydrospiro[cyclohexane-1,3′-pyrrolo[2,3-b]pyridin]-5′-yl)benzamide], with 26.1 nM; and `CC(C)[C@@H]1C[C@]12CNc1ncc(-c3ccc(N)c(C(=O)N(C)C)c3F)cc12` [Compound 234b, 6-Amino-2-fluoro-3-((1S,2S)-2-isopropyl-1′,2′-dihydrospiro[cyclopropane-1,3′-pyrrolo[2,3-b]pyridin]-5′-yl)-N,N-dimethylbenzamide], with 38 nM.
Molecule `CN(C)C(=O)c1c(N)ccc(-c2cnc3c(c2Cl)[C@]2(CC[C@@H](C(N)=O)CC2)CN3)c1F` [Compound 235a, (1r,4r)-5′-(4-Amino-3-(dimethylcarbamoyl)-2-fluorophenyl)-4′-chloro-1′,2′-dihydrospiro[cyclohexane-1,3′-pyrrolo[2,3-b]pyridine]-4-carboxamide] displayed an inhibition constant (Ki) of 46.7 nM.
Then `CN(C)C(=O)c1c(N)ccc(-c2cnc3c(c2Cl)[C@]2(CC[C@H](C(N)=O)CC2)CN3)c1F` [Compound 235b, (1s,4s)-5′-(4-Amino-3-(dimethylcarbamoyl)-2-fluorophenyl)-4′-chloro-1′,2′-dihydrospiro[cyclohexane-1,3′-pyrrolo[2,3-b]pyridine]-4-carboxamide], with 11.9 nM; and `NC(=O)C1(c2cccc(-c3cnc4c(c3Cl)C3(CC=CC3)CN4)c2)CC1` [Compound 236, 1-(3-(4′-Chloro-1′,2′-dihydrospiro[cyclopentane-1,3′-pyrrolo[2,3-b]pyridin]-3-en-5′-yl)phenyl)cyclopropane-1-carboxamide], with 33.2 nM.
Then `Clc1c(-c2ccc(Oc3ncccn3)cc2)cnc2c1C1(CC=CC1)CN2` [Compound 237, 4′-Chloro-5′-(4-(pyrimidin-2-yloxy)phenyl)-1′,2′-dihydrospiro[cyclopentane-1,3′-pyrrolo[2,3-b]pyridin]-3-ene], with 283 nM; and `Cc1cc(C)n(-c2cccc(-c3cnc4c(c3Cl)C3(CC=CC3)CN4)c2)n1` [Compound 238, 4′-Chloro-5′-(3-(3,5-dimethyl-1H-pyrazol-1-yl)phenyl)-1′,2′-dihydrospiro[cyclopentane-1,3′-pyrrolo[2,3-b]pyridin]-3-ene], with 22.9 nM.
Then `CN(C)C(=O)c1c(N)ccc(-c2cnc3c(c2Cl)[C@]2(CC[C@@H](C#N)CC2)CN3)c1F` [Compound 241a, 6-Amino-3-((1r,4r)-4′-chloro-4-cyano-1′,2′-dihydrospiro[cyclohexane-1,3′-pyrrolo[2,3-b]pyridin]-5′-yl)-2-fluoro-N,N-dimethylbenzamide], with 44.8 nM; and `CN(C)C(=O)c1c(N)ccc(-c2cnc3c(c2Cl)[C@]2(CC[C@H](C#N)CC2)CN3)c1F` [Compound 241b, 6-Amino-3-((1s,4s)-4′-chloro-4-cyano-1′,2′-dihydrospiro[cyclohexane-1,3′-pyrrolo[2,3-b]pyridin]-5′-yl)-2-fluoro-N,N-dimethylbenzamide], with 12.5 nM.
The molecule `Cc1c(CC#N)ccnc1-c1cccc(-c2cnc3c(c2)C2(CC2)CN3)c1` [Compound 242, 2-(2-(3-(1′,2′-Dihydrospiro[cyclopropane-1,3′-pyrrolo[2,3-b]pyridin]-5′-yl)phenyl)-3-methylpyridin-4-yl)acetonitrile] registered a Ki of 11.7 nM.
The result for `N#CC1CCCCN1C(=O)c1cccc(-c2cnc3c(c2)C2(CC2)CN3)c1F` (stereo not drawn) [Compound 244, 1-(3-(1′,2′-Dihydrospiro[cyclopropane-1,3′-pyrrolo[2,3-b]pyridin]-5′-yl)-2-fluorobenzoyl)piperidine-2-carbonitrile] reads 8.25 nM.
`Cn1cc(C2CCCCN2C(=O)c2cccc(-c3cnc4c(c3)[C@]3(CC[C@H](O)CC3)CN4)c2F)cn1` (stereo partly drawn) [Compound 245a, (2-Fluoro-3-((1s,4s)-4-hydroxy-1′,2′-dihydrospiro[cyclohexane-1,3′-pyrrolo[2,3-b]pyridin]-5′-yl)phenyl)((R)-2-(1-methyl-1H-pyrazol-4-yl)piperidin-1-yl)methanone] gave an inhibition constant Ki of 42 nM.
Then `CC(C)(C)c1nnc(-c2cccc(-c3cnc4c(c3Cl)C3(CC=CC3)CN4)c2)o1` [Compound 247, 2-(tert-Butyl)-5-(3-(4′-chloro-1′,2′-dihydrospiro[cyclopentane-1,3′-pyrrolo[2,3-b]pyridin]-3-en-5′-yl)phenyl)-1,3,4-oxadiazole], with 253 nM; and `CN(C)C(=O)c1c(N)ccc(-c2cnc3c(c2Cl)[C@]2(CC[C@H](CO)CC2)CN3)c1F` [Compound 248a, 6-Amino-3-((1s,4s)-4′-chloro-4-(hydroxymethyl)-1′,2′-dihydrospiro[cyclohexane-1,3′-pyrrolo[2,3-b]pyridin]-5′-yl)-2-fluoro-N,N-dimethylbenzamide], with 6.01 nM; and `CN(C)C(=O)c1c(N)ccc(-c2cnc3c(c2Cl)[C@]2(CC[C@@H](CO)CC2)CN3)c1F` [Compound 248b, 6-Amino-3-((1r,4r)-4′-chloro-4-(hydroxymethyl)-1′,2′-dihydrospiro[cyclohexane-1,3′-pyrrolo[2,3-b]pyridin]-5′-yl)-2-fluoro-N,N-dimethylbenzamide], with 4.89 nM.
The result for `Cc1c(CC#N)ccnc1-c1cccc(-c2cnc3c(c2Cl)C2(CC=CC2)CN3)c1` [Compound 249, 2-(2-(3-(4′-Chloro-1′,2′-dihydrospiro[cyclopentane-1,3′-pyrrolo[2,3-b]pyridin]-3-en-5′-yl)phenyl)-3-methylpyridin-4-yl)acetonitrile] reads 4.3 nM; that for `CN(C)C(=O)c1c(N)ccc(-c2cnc3c(c2Cl)[C@]2(CC[C@@](C)(C#N)CC2)CN3)c1F` [Compound 250b, 6-Amino-3-((1r,4r)-4′-chloro-4-cyano-4-methyl-1′,2′-dihydrospiro[cyclohexane-1,3′-pyrrolo[2,3-b]pyridin]-5′-yl)-2-fluoro-N,N-dimethylbenzamide], 41.3 nM.
The result for `Cc1c(CC#N)ccnc1-c1cccc(-c2cnc3c(c2)C2(CC2)CN3)c1F` [Compound 251, 2-(2-(3-(1′,2′-Dihydrospiro[cyclopropane-1,3′-pyrrolo[2,3-b]pyridin]-5′-yl)-2-fluorophenyl)-3-methylpyridin-4-yl)acetonitrile] reads 3.15 nM.
On to `Cc1c(CC#N)ccnc1-c1cccc(-c2cnc3c(c2Cl)C2(CC=CC2)CN3)c1F` [Compound 252, 2-(2-(3-(4′-Chloro-1′,2′-dihydrospiro[cyclopentane-1,3′-pyrrolo[2,3-b]pyridin]-3-en-5′-yl)-2-fluorophenyl)-3-methylpyridin-4-yl)acetonitrile], for which the inhibition constant Ki came to 5.94 nM.
Then `CN(C)C(=O)c1c(N)ccc(-c2cnc3c(c2Cl)[C@]2(CC[C@H](C(C)(C)O)CC2)CN3)c1F` [Compound 255a, 6-Amino-3-((1s,4s)-4′-chloro-4-(2-hydroxypropan-2-yl)-1′,2′-dihydrospiro[cyclohexane-1,3′-pyrrolo[2,3-b]pyridin]-5′-yl)-2-fluoro-N,N-dimethylbenzamide], with 19.9 nM.
